As a reminder, the CC50 is the concentration that lowers cell viability or growth by half. Low readings indicate harm at low concentration, high ones better tolerance by the cells. One may read the inhibition as the relative decrease from the control value, in per cent. The term IC50 denotes the concentration needed to halve the response being measured.

Structures are written as SMILES. Calls of active or inactive are those of the source. The calls are words filed in the database; no cut-off is given here.

The values below come from ChEMBL document CHEMBL1138976, “Anti-HIV activity of stilbene-related heterocyclic compounds” (Bioorg Med Chem Lett, 2006).

A short description of data set [1]: Cytotoxicity by Propidium Iodide staining.
In data set [2] the test system is Human immunodeficiency virus. The data set can be described thus: Ratio of cytotoxic activity to anti HIV activity. The class given is functional.
Data set [3] addresses Nuclear factor NF-kappa-B complex (Homo sapiens) (UniProt Q00653+P19838+Q04206). Put plainly: Inhibition of TNFalpha activated NF-kappaB mediated transactivation of HIV-1 LTR Luc in 5.1 cells at 100 uM. Type of data set: functional, cell-based.
Data set [4] concerns the target T1, Protein Tat (Human immunodeficiency virus type 1 group M subtype B (isolate PCV12)(HIV-1)) (UniProt P04326).
T1 sequence (whole entry): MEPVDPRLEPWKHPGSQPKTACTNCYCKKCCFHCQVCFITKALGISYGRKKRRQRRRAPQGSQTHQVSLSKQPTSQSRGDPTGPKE
The data set can be described thus: Inhibition of Tat activity in HeLa cells transfected with Tat-Luc at 100 uM. Type of data set: functional, cell-based.

In data set [5] the test system is Human immunodeficiency virus. Put plainly: Inhibition of HIV replication by recombinant virus assay. The class given is functional, organism-based. Conditions: Human immunodeficiency virus 1.
Data set [6] deals with Human immunodeficiency virus. The data set can be described thus: Specificity against NF-kappaB and Tat proteins assessed by activity in Hela Tet-ON assay. The class given is functional.

Chain of Nuclear factor NF-kappa-B complex (Homo sapiens) (P19838 whole entry, looked up): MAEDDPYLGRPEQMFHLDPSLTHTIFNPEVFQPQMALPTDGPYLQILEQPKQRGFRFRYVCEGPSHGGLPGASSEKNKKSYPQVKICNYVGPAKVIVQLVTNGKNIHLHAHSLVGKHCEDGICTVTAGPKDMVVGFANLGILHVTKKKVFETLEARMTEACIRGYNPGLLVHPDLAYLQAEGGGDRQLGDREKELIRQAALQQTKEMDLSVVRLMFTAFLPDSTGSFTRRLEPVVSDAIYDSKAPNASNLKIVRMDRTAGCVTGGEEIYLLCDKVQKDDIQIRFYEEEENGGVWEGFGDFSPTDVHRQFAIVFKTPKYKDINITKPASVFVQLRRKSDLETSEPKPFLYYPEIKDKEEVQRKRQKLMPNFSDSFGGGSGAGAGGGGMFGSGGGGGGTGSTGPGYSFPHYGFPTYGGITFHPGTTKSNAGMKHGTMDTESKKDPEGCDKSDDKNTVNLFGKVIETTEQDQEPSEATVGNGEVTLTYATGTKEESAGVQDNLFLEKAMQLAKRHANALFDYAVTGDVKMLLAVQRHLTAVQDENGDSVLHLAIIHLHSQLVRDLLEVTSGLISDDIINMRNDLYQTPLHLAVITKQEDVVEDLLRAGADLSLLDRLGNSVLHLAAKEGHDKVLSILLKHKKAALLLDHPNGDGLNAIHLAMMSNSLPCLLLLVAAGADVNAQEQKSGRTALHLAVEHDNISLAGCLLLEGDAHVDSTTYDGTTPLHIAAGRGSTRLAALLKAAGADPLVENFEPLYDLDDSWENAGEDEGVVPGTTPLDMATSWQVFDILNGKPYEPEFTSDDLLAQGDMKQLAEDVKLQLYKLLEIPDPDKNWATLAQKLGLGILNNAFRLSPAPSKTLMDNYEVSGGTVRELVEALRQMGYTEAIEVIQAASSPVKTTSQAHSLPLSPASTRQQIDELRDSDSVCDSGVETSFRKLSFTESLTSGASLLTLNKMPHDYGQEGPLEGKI
Chain of Nuclear factor NF-kappa-B complex (Homo sapiens) (Q00653 whole entry, looked up): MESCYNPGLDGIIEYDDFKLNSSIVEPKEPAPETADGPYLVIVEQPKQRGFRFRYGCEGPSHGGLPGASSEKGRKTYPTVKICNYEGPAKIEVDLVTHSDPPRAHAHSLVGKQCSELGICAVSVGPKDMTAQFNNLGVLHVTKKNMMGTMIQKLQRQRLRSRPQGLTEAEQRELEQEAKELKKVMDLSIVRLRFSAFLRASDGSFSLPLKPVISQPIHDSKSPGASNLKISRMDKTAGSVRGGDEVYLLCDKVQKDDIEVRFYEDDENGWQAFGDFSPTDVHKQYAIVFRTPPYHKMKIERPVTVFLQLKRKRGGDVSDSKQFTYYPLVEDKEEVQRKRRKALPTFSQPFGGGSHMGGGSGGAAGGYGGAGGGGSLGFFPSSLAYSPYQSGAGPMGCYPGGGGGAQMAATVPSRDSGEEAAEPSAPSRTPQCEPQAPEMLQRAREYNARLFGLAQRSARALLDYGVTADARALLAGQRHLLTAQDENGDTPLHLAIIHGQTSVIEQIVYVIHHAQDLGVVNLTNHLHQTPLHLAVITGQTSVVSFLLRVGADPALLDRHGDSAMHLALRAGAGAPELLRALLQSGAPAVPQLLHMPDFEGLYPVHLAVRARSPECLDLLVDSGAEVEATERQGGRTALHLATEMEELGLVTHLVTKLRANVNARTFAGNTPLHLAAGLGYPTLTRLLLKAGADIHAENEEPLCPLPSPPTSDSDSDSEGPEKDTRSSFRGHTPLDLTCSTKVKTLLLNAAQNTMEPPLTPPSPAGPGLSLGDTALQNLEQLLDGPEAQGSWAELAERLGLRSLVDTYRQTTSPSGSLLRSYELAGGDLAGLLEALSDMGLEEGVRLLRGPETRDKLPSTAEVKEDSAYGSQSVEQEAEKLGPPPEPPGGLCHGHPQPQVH
Chain of Nuclear factor NF-kappa-B complex (Homo sapiens) (Q04206 whole entry, looked up): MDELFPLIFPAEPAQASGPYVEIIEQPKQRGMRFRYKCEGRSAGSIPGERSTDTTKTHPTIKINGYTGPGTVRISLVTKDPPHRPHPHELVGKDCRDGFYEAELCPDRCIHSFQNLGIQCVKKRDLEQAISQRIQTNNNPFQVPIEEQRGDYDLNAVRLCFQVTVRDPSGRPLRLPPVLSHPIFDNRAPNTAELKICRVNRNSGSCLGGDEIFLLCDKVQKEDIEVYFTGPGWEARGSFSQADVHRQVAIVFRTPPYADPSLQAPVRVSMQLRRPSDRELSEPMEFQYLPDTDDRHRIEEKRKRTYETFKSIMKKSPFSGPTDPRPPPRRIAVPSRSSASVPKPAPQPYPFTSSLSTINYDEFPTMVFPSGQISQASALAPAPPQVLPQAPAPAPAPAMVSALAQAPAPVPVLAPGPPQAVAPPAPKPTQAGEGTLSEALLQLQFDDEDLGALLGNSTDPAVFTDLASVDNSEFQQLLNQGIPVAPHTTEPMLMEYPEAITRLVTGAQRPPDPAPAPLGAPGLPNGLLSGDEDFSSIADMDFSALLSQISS

For `Cn1nc(Cc2ccc3c(c2)OCO3)c2ccccc2c1=O`, the CC50 in data set [1] was determined as 131 µM. Moreover, the “Ratio CC50/IC50” value in data set [2] was 4.8. Moreover, the inhibition in data set [3] amounted to 97.2%; in data set [4], 25.5%. Moreover, the IC50 in data set [5] was determined as 27.4 µM. The outcome in data set [6] was inactive.

Consider `O=C1O/C(=C\c2ccc(Cl)cc2)c2ccccc21`, for which, in data set [1], the cytotoxic concentration (CC50) is greater than 195 µM. In addition, the “Ratio CC50/IC50” value in data set [2] was greater than 8.2. Also, the inhibition in data set [3] was found to be 84.8%; in data set [4], 84.6%. For the same molecule, the IC50 in data set [5] was 23.8 µM. Moreover, in data set [6], the result was Active.

Turning to `CSc1ccc(CC2(O)c3ccccc3C3=NCCCN32)cc1` (centres undefined), the CC50 in data set [1] is 142 µM. In data set [2], the “Ratio CC50/IC50” value is 2.3. Moreover, the values for the inhibition in data set [3] and in data set [4] were 99.8% and 13.9%, respectively. In data set [5], the IC50 is 61.5 µM. Also, the result in data set [6] was inactive.

With `CCn1nc(Cc2ccc(OC)cc2)c2ccccc2c1=O`, half-maximal cytotoxicity in data set [1] (CC50) was put at 89.5 µM. In addition, in data set [2], the “Ratio CC50/IC50” value is 4. Besides, the values for the inhibition in data set [3] and in data set [4] were 93.5% and 14.2%, respectively. Also, the IC50 in data set [5] turned out to be 22.3 µM. Besides, the outcome in data set [6] was inactive.
